Experimental data taken from the RepoRT retention time repository.

Test: Agilent ZORBAX 300 SB-C18, 150 × 1 mm, 3.5 µm; A: water + 0.01% heptafluorobutyric acid; B: acetonitrile + 0.01% heptafluorobutyric acid; gradient (min/%B) 0/0 100/90
Conditions: stereoisomer not certain

LC retention time [min] | SMILES
6.98 | CCCNC(=O)N1CCCC(C(N)=O)C1 (centres undefined)
9.33 | Cc1cccc(-c2nc(=S)[nH][nH]2)c1
7.03 | NC(=O)NNC(=S)Nc1ccccc1
8.56 | c1cncc(CNc2c3c(nc4ccccc24)CCC3)c1
8.93 | COC(=O)Cn1c(=O)n(C)c2c(=O)n(C)c(=O)n(C)c21
8.09 | NCCCCC(NC(CCc1ccccc1)C(=O)[O-])C(=O)N1CCCC1C(=O)O (centres undefined)
11 | S=C(Nc1cccnc1)NC1CCCc2ccccc21 (centres undefined)
8.53 | CCCCCCN(C)C
10.8 | CCNc1ccccc1C(=O)O
6.32 | N=C(N=C(N)N)N1CCOCC1
7.05 | CCN(CC)CCCC(C)N (centres undefined)
9.82 | Cc1ccc2[nH]c(-c3cc[n+](C)cc3)cc2c1
8.46 | OCc1ccc2cc[nH]c2c1
10.5 | NC(=O)c1ccccc1NC(=O)c1cc2c(n(-c3ccccc3)c1=O)CCCC2=O
12.9 | CCc1ccc2c(c1)c(C=O)c(C)n2C
9.64 | COC(=O)C1C(O)CCC2CN3CCc4c([nH]c5ccccc45)C3CC21 (centres undefined)
16.7 | CCCCCCCCCCCC(N)=O
7.32 | Nc1ccnc2ccccc12
1.67 | O=S(=O)(O)CCCN1CCOCC1
6.42 | CN1Cc2ccccc2CC1C(=O)O (centres undefined)

LC retention time [min] | SMILES
9.89 | CC1(C)CC(NC(=S)NC2CCCCC2)CC(C)(C)N1
2.62 | O=c1[nH]c2cc[nH]c(=O)c2[nH]1
8.93 | CC(CCc1ccc(O)cc1)NCC(O)c1ccc(O)cc1 (centres undefined)
13.1 | CC(CC(=O)Nc1ccc(Nc2ccccc2)cc1)=NNC(=O)Cc1ccccc1
15.9 | CCn1c2ccccc2c2cc(C=Nn3c(C)cc(C)cc3=O)ccc21
11.7 | COc1cccc(C=NNC(=O)c2ccccc2)c1OC
9.82 | Cc1cn(COCc2ccccc2)c(=O)[nH]c1=O
8.65 | c1coc(C2NCCc3ccccc32)c1 (centres undefined)
7.83 | Cc1ccccc1CN
9.67 | CSC1=NC(C)(C)Cc2c(C)cccc21
12 | COc1cccc(C2CC(=O)Nc3cc4c(cc32)OCO4)c1OC (centres undefined)
10.4 | COC(=O)c1ccc2ccccc2n1
8.42 | Cc1cc(=O)[nH]c2c(C)c(N)ccc12
6.67 | CCN1CCNCC1
8.16 | CCC(C)NC(C)CC (centres undefined)
16.1 | COc1ccc(C=CC(=O)C=Cc2ccc(OC)cc2)cc1
15.7 | O=C1CC(Nc2ccc3ccccc3c2)C(=O)N1c1cccc2ccccc12 (centres undefined)
10.5 | CCc1ccc(N2CC(C(=O)O)CC2=O)cc1 (centres undefined)
6.36 | CCNCC(O)CC (centres undefined)
10.1 | COc1ccc(CN(CCN(C)C)c2ccccn2)cc1

Second part, the molecule before the results:

SMILES | LC retention time [min]
NC(=O)c1ccc(NC(=S)Nc2ccccc2)cc1 | 9.25
C=CCN1CCC23c4c5ccc(O)c4OC2C(=O)CCC3(O)C1C5 (centres undefined) | 8.17
CN(C)C1C(=O)C(C(=O)NCN2CCCC2)C(=O)C2(O)C(=O)C3C(=O)c4c(O)cccc4C(C)(O)C3CC12 (centres undefined) | 8.91
Cn1c(=O)c(=O)n(CC(=O)c2ccc3c(c2)CCCC3)c2ccccc21 | 14.1
C=CCN1CCNCC1 | 7.39
O=c1[nH][nH]c(=O)n1-c1ccc2c(c1)OCO2 | 6.9
O=C(CCN1C(=O)c2ccccc2C1=O)NCc1ccco1 | 10.2
CCCCCCCCN(CCCCCCCC)CCCCCCCC | 19.5
Nc1cccc(N2CCOCC2)c1 | 7.53
CCC(c1ccc(C)cc1)N(NC(=O)C(O)(c1ccc(C)cc1)c1ccc(C)cc1)C(=O)c1ccccc1 (centres undefined) | 18.3
CNC(=O)c1ccc(N)cc1 | 6.25
CN(C)CCC=C1c2ccccc2CCc2ccccc21 | 11.8
NC(=S)NC(N)=S | 6.5
c1cncc(-c2cc3ccccc3[nH]2)c1 | 10.1
COc1ccc(-c2cc(=O)c3ccc(OC)c(OC)c3o2)cc1OC | 12.7
c1ccc(CNCCNc2ccccc2)cc1 | 9.6
NCCCCCCCCCCCCN | 8.26
O=CN1CCNCC1 | 2.79
COc1cccc(OC)c1C(=O)C=Cc1ccccc1 | 14.7
CC(=O)c1[nH]c(C)c(C(=O)c2ccccc2)c1C | 11.6
c1ccc2c(c1)ccc1cccnc12 | 12.7
Cc1ccc(NC(=O)Cn2c(=O)c3c(C)cc(C)nc3n(-c3ccccc3)c2=O)c(C)c1 | 15.2
NC(=S)NN=C1CCCC1 | 8

SMILES | LC retention time [min]
c1ccc2ncncc2c1 | 7.73
CCn1cc(-c2ccn[nH]2)cn1 | 7.93
CCn1cc(-c2ccn[nH]2)c(C)n1 | 8.21
COc1cc(C=CC(=O)c2ccc3c(c2)OCO3)cc(OC)c1OC | 14.7
O=C(O)CCC(=O)Nc1ccc(Cc2ccc(NC(=O)CCC(=O)O)cc2)cc1 | 9.35
CCN1CN(Cc2ccccc2)CNC1=S | 10.8
N=C(N)c1ccc(N)cc1 | 6.62
Cc1ccc2[nH]cc(C=O)c2c1 | 9.98
CCCCn1ccnc1 | 7.5
Cn1c(=O)n(C)c2cc(N)ccc21 | 6.8
O=c1ccc2nc3ccc(O)cc3oc-2c1 | 9.57
Cc1nc2ccccc2nc1CSc1cccc2cccnc12 | 12.8
CC(=O)NC(Cc1ccc(O)cc1)C(N)=O (centres undefined) | 6.07
CCc1ccc(C(c2c[nH]c3ccccc23)c2c[nH]c3ccccc23)cc1 | 18.2
O=C(C=Cc1ccccc1)c1ccc(O)cc1O | 14.3
CN(C)NC1=CC(=O)CC(c2ccccc2)C1 (centres undefined) | 10.4
OCc1cccnc1-c1ncccc1CO | 6.38
COc1ccc(N2C(=O)C=CC2=O)cc1 | 9.62
Nc1c2ccccc2nc2ccccc12 | 8.38
Cc1cc(-c2noc(-c3ccco3)n2)c2ccccc2n1 | 13.1
c1ccc(-c2cc(N3CCCCC3)c3ccccc3n2)cc1 | 12
CN(C)C1CCNC1 (centres undefined) | 6.6
CC12CCC(=O)C=C1CCC1C2CCC2(C)C1CCC2(C)O (centres undefined) | 14.5

SMILES | LC retention time [min]
c1ccc(Cc2nn[nH]n2)cc1 | 8.45
CC(C)c1ccccc1NC(=O)CN | 8.61
CNCCCCCCNC | 7.03
Cc1cccc(C)c1NC(=S)Nc1ccccc1 | 13.1
OCC1CCCN2CCCCC12 (centres undefined) | 6.81
c1ccc2[nH]cnc2c1 | 7.09
CCC1(CC)C(=O)NCC(C)C1=O (centres undefined) | 9.1
CC(C)CNc1c(N)c(=O)oc2ccccc12 | 11.9
Cc1ccc(NC(=O)CCN2CCN(C)CC2)cc1 | 8.34
CCCCCCCCCCCCCN | 14
CC(=O)NCC(NC(C)=O)C(C)(C)C (centres undefined) | 7.28
O=C(c1cccc(C(=O)N(Cc2ccccc2)c2ccccn2)c1)N(Cc1ccccc1)c1ccccn1 | 15.4
O=C(NN=Cc1ccco1)c1ccccc1 | 9.65
C=C(C)C1CCC2=CC(=O)CC(C)C2(C)C1 (centres undefined) | 17.1
COc1ccc(CNCc2ccc(C(C)C)cc2)cc1 | 11.5
CCN(CC)CCn1cnc2c1c(=O)n(C)c(=O)n2C | 7.8
CCn1cc(CCC(=O)O)c2ccccc21 | 12.4
c1ccc(CN2CCN(Cc3ccncc3)CC2)nc1 | 7.31
CN1C2CCC1CC(OC(=O)C(CO)c1ccccc1)C2 (centres undefined) | 8.92
CN(C)CCCNC(=O)Nc1cccc2ccccc12 | 8.85
CC1(C)CC(=NNC(=O)C(=O)NN=C2CC(C)(C)NC(C)(C)C2)CC(C)(C)N1 | 7.32
O=C1c2ccccc2CN1CCNC(=S)NC1CCCCC1 | 12
Cc1cccc(CN2CCN(C(=O)CC(C)C)CC2)c1 | 9.36

SMILES | LC retention time [min]
CCCCN(CC)CC | 7.73
CCN(CC)c1ccc(C=NNC(=O)C(C)Nc2ccc3ccccc3c2)cc1 (centres undefined) | 14.3
NC1CCc2ccccc21 (centres undefined) | 7.85
Cc1cc(O)c(C(C)C)cc1NC(=O)Cn1nc(C)c2ccccc2c1=O | 11.9
COc1cc(N)c(N2CCOCC2)cc1OC | 7.99
O=c1c2ccccc2nc(-c2ccccc2)n1-c1ccccc1 | 13.8
CSc1cccc2cccnc12 | 11
O=C(Nc1cccnc1)c1ccccn1 | 8.14
CN1C(=O)CC(N2CCN(C(=O)CN3CCCC3)CC2)C1=O (centres undefined) | 7.12
CNc1cnccn1 | 6.32
CCCCCCCCCCNC(=S)Nc1ccccc1 | 19.6
Cc1cccc(NC(=S)NNC(=O)c2cccc(C)c2)c1 | 12.3
Cc1cc(C)cc(NC(=O)c2cc(-c3ccccc3)nc3ccccc23)c1 | 17.9
Cc1nnc(N)[nH]c1=O | 2.72
O=C(O)c1ccc2c(c1)C1C=CCC1C(c1cccc3ccccc13)N2 (centres undefined) | 16.1
Cc1cc(-c2ccccc2)cc(-c2ccccc2)n1 | 12.1
Cc1nc2c(ccc3[nH]c(C)nc32)[nH]1 | 7.32
CC(=O)c1c(-c2ccccc2)[nH]c2ccccc12 | 13
CN(C)CC(C)(C)CO | 6.43
Cc1cc(C=O)c(C)n1C1CCCCC1 | 14.4
